Experimental data published in PubChem BioAssay (NCI).
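48-hour exposure; five concentrations; linearly interpolated endpoints. The concentration for full growth arrest is given as TGI.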

How the values were obtained:
Test in all cases: NCI anticancer screen, dose series, 48 h
TK-10 renal = test system: TK-10 renal
RXF 393 renal = test system: RXF 393 renal
M14 melanoma = test system: M14 melanoma
CCRF-CEM leukemia = test system: CCRF-CEM leukemia
SW-620 colon = test system: SW-620 colon
MALME-3M melanoma = test system: MALME-3M melanoma
HT29 colon = test system: HT29 colon
MDA-MB-435 = test system: MDA-MB-435
ACHN renal = test system: ACHN renal
MDA-MB-231 breast = test system: MDA-MB-231 breast
HCT-15 colon = test system: HCT-15 colon
NCI-H522 lung = test system: NCI-H522 lung
U251 CNS = test system: U251 CNS
SF-295 CNS = test system: SF-295 CNS
SNB-75 CNS = test system: SNB-75 CNS
SF-539 CNS = test system: SF-539 CNS
MOLT-4 leukemia = test system: MOLT-4 leukemia

Row | Compound | TGI (TK-10 renal) [µM] | TGI (RXF 393 renal) [µM] | TGI (M14 melanoma) [µM] | TGI (CCRF-CEM leukemia) [µM] | TGI (SW-620 colon) [µM] | TGI (MALME-3M melanoma) [µM] | TGI (HT29 colon) [µM] | TGI (MDA-MB-435) [µM] | TGI (ACHN renal) [µM] | TGI (MDA-MB-231 breast) [µM] | TGI (HCT-15 colon) [µM] | TGI (NCI-H522 lung) [µM] | TGI (U251 CNS) [µM] | TGI (SF-295 CNS) [µM] | TGI (SNB-75 CNS) [µM] | TGI (SF-539 CNS) [µM] | TGI (MOLT-4 leukemia) [µM]
1 | O=C1NNC2NC(=O)C3(NN2C1=O)c1ccccc1-c1ccccc13 (configuration not stated) | > 100 | > 100 | > 100 | > 100 | > 100 | > 100 | > 100 | > 100 | > 100 | > 100 | > 100 | > 100 | > 100 | > 100 | > 100 | > 100 | 
2 | CCOC(=O)c1cc(Br)c(-c2cc(C)no2)[nH]1 | > 100 | > 100 | > 100 |  | > 100 | 61.3 | > 100 | 38.8 | > 100 | > 100 | > 100 | 78.9 | > 100 | > 100 | > 100 | > 100 | > 100
3 | CCOC(OCC)N1C(=O)C2(C(OCC)OCC)CC3C(OC(=O)N3N)c3cccc1c32 (configuration not stated) | > 100 | > 100 |  | > 100 | > 100 | > 100 | > 100 | > 100 | > 100 | > 100 | > 100 |  | > 100 | > 100 |  | > 100 | > 100
4 | c1ccc(C(=NCCC2CNc3ccccc32)c2ccccc2)cc1 (configuration not stated) |  | > 100 | > 100 | > 100 | > 100 | > 100 | > 100 | > 100 | > 100 | > 100 | > 100 | > 100 | > 100 | > 100 |  |  | > 100
5 | N=CN=CC(=S)O[C@@H]1C(=O)N2CCC[C@@]23CCCC[C@@H]13 | > 12.5 | > 12.5 | > 12.5 | > 12.5 |  | > 12.5 | > 12.5 | > 12.5 | > 12.5 | > 12.5 | > 12.5 | > 12.5 | > 12.5 | > 12.5 | > 12.5 |  | 
6 | COc1ccc(NC(C)=O)c(C(O)CCNC(C)=O)c1 (configuration not stated) | > 100 | > 100 | > 100 | > 100 | > 100 |  | > 100 | > 100 | > 100 | > 100 | > 100 | > 100 | > 100 | > 100 | > 100 | > 100 | > 100
7 | CCCCCCCCCCCCCCCCOP(=O)(O)OCC(NC(C)=O)C(=O)O (configuration not stated) | 62.6 | 48.3 | > 100 |  | > 100 | > 100 | > 100 | > 100 | > 100 | 93.2 | 34.3 | > 100 | 40.8 | 47.4 | 98.2 | > 100 | 51.8
8 | CCN(CC)c1ccc2nc3ccc(N=Nc4c(O)ccc5ccccc45)cc3[n+](-c3ccccc3)c2c1 | > 100 | > 100 | > 100 | > 100 | > 100 | > 100 | > 100 | > 100 | > 100 | > 100 | > 100 | > 100 | > 100 | > 100 | > 100 |  | > 100
9 | CCN(CC)C1C(=O)NC1C#Cc1ccccc1 (configuration not stated) | > 100 | > 100 | > 100 | > 100 | > 100 | > 100 | > 100 | > 100 | > 100 | > 100 | > 100 | > 100 | > 100 | > 100 | > 100 | > 100 | 
10 | O=c1c(-c2ccccc2F)coc2cc(F)ccc12 | > 100 | > 100 | > 100 | > 100 | > 100 |  | > 100 | > 100 | > 100 | > 100 | > 100 | > 100 | > 100 | > 100 | 96.4 | > 100 | > 100
11 | Oc1cc(N2CCCC2)ccc1/C=N/N1C(=S)N(c2ccccc2)C(=Nc2ccccc2)C1=Nc1ccccc1 | > 100 | 46.1 | > 100 |  | > 100 | > 100 | > 100 | > 100 | > 100 | 90.3 | > 100 | > 100 | > 100 | > 100 |  | > 100 | > 100
12 | CCOc1ccccc1-c1nc2c(s1)C(=O)c1ccccc1C2=O | 34.4 | 31.5 | 36.7 |  | 23.4 | 19.8 |  | 4.31 | 29.2 | 12.7 | > 100 | 97.7 | 27.7 | 25.1 | 25.6 | 40.9 | > 100
13 | CC(=O)OCC1OC(O[C@@H]2C[C@H]3C(C)(C)[C@@H](OC(C)=O)CC[C@]3(C)[C@H]3CC[C@]45C[C@]4(CC[C@H]5[C@@H](C)C[C@@H](O)[C@H](O)C(C)(C)F)[C@@]32C)C(O)C(O)C1O (some centres not stated) | > 100 | > 100 | 3.28 | 3.57 | 4.85 | 3.48 | 3.05 | 31.6 | > 100 | 48.2 | 5.94 | 4.82 | 41.1 | > 100 |  | 3.51 | 4.28
14 | O=C(NC(Cc1cnc[nH]1)C(=O)N1CCCC1)C1CCCC1 (configuration not stated) | > 100 | > 100 | > 100 | > 100 | > 100 | > 100 | > 100 | > 100 | > 100 | > 100 | > 100 | > 100 | > 100 | > 100 | > 100 |  | > 100
15 | O=C1/C(=C/c2ccc(Oc3ccccc3)cc2)N=C(c2ccccc2)N1c1ccc(S(=O)(=O)Nc2nccs2)cc1 | > 100 | 93.4 | 72.3 | > 100 | > 100 | 86.6 | 72.6 | 6.86 | > 100 | > 100 | 70.1 |  | > 100 | 85.5 | 58.1 | > 100 | 71.2
